Reference: ChEMBL document CHEMBL1138139, “Synthesis of 1-(3',4',5'-trimethoxy) phenyl naphtho[2,1b]furan as a novel anticancer agent” (Bioorg Med Chem Lett, 2006)
In brackets after ≈: the same amount, converted by molar mass.

How the values were obtained:
Assay type in all cases: functional, cell-based
KB = experiment: Cytotoxicity against human KB403 cell line by MTT assay
COLO 320DM = experiment: Cytotoxicity against human COLO320DM cell line by MTT assay
WRL68 = experiment: Cytotoxicity against human WRL68 cell line by MTT assay
Caco-2 = experiment: Cytotoxicity against human Caco-2 cell line by MTT assay
PA-1 = experiment: Cytotoxicity against human PA1 cell line by MTT assay
MCF7 = experiment: Cytotoxicity against MCF7 cell line by MTT assay; conditions: Homo sapiens

| SMILES | IC50 (KB) [µg/mL] | IC50 (COLO 320DM) [µg/mL] | IC90 (COLO 320DM) [µg/mL] | IC50 (WRL68) [µg/mL] | IC90 (WRL68) [µg/mL] | IC50 (Caco-2) [µg/mL] | IC50 (PA-1) [µg/mL] | IC90 (PA-1) [µg/mL] | IC90 (KB) [µg/mL] | IC90 (Caco-2) [µg/mL] | IC90 (MCF7) [µg/mL] |
| --- | --- | --- | --- | --- | --- | --- | --- | --- | --- | --- | --- |
| c1ccc(-c2coc3ccc4ccccc4c23)cc1 | 9 (≈ 36.8 µM) |  |  |  |  |  |  |  |  |  |  |
| COc1cc(-c2coc3ccc4ccccc4c23)cc(OC)c1OC | 8 (≈ 23.9 µM) | 0.65 (≈ 1.94 µM) | 4 (≈ 12 µM) | 0.7 (≈ 2.09 µM) | 5 (≈ 15 µM) | 0.5 (≈ 1.5 µM) | 3.5 (≈ 10.5 µM) | 4.5 (≈ 13.5 µM) | 10 (≈ 29.9 µM) |  |  |
| COc1ccc(-c2coc3ccc4ccccc4c23)cc1 |  | 5 (≈ 18.2 µM) |  | 6 (≈ 21.9 µM) |  | 0.95 (≈ 3.46 µM) | 4 (≈ 14.6 µM) | 8 (≈ 29.2 µM) |  | 7.5 (≈ 27.3 µM) |  |
| CC(=O)O[C@H]1C(=O)[C@@]2(C)[C@H]([C@H](OC(=O)c3ccccc3)[C@]3(O)C[C@H](OC(=O)[C@H](O)[C@@H](NC(=O)c4ccccc4)c4ccccc4)C(C)=C1C3(C)C)[C@]1(OC(C)=O)CO[C@@H]1C[C@@H]2O [PACLITAXEL] | 0.001 (≈ 0.00117 µM) | 0.0045 (≈ 0.00527 µM) | 0.01 (≈ 0.0117 µM) | 0.0035 (≈ 0.0041 µM) | 2.5 (≈ 2.93 µM) | 0.007 (≈ 0.0082 µM) | 0.006 (≈ 0.00703 µM) | 0.9 (≈ 1.05 µM) | 0.047 (≈ 0.055 µM) | 0.065 (≈ 0.0761 µM) | 0.85 (≈ 0.995 µM) |
